Patent US7795213B2 (POSCO, priority 2002, dated 2010)
Where no end group is shown, it is not given here.

What was measured:
[1] = target: T1, VEGF/Aβ interaction (VEGF165, biotinylated Aβ) (Homo sapiens, UniProt P15692); experiment: Inhibition of biotinylated Aβ binding to coated VEGF165; details: VEGF165 50 ng/well; biotinylated Aβ 100 ng/ml; increasing concentration of test compound
T1 sequence (P15692 27-191 isoform P15692-4 limits assumed): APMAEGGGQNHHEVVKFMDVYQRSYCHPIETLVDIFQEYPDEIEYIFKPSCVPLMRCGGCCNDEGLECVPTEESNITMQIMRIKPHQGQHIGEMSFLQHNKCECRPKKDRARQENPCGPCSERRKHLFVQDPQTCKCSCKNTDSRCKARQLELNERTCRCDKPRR
Procedure: Biotinylated Aβ (100 ng/ml) was added to each well in the presence of increasing concentration of test compound. After 2 hours, each well was rinsed several times with 0.05% Tween in PBS. The bound biotinylated Aβ was determined with steptavidin conjugated with horse radish peroxidase.

[2] = target: T2, Aβ (Homo sapiens, UniProt P05067); experiment: Inhibition of the aggregation of Aβ by Aβ-VEGF binding inhibitors; format: biochemical
T2 construct: Aβ (Aβ) is the major component of senile plaques and is derived from the amyloid precursor protein by proteolytic cleavage

[3] = target: T3, Aβ1-42 (Homo sapiens, UniProt P05067); experiment: Thioflavin T assay of Aβ aggregation; format: biochemical; details: 24 hours
T3 construct: Aβ1-40, Aβ1-42, and Aβ40-1 (BACHEM, Bubendorf, Switzerland) were immobilized on a CM5 sensor chip; purchased BACHEM
Procedure: 10 μM of thioflavin T was added to the mixture and sufficiently mixed. Then, the fluorescence of the mixture was measured at Ex=444 nm and Em=485 nm, and then, compared with that of control of Aβ incubated alone, to determine the affection on aggregation of Aβ.
50 μM Aβ was incubated at 37° C. for 24 hours together with triamterene of 0 μM, 4 μM, 20 μM or 100 μM, respectively, to generate aggregation of Aβ. Then, the degree of aggregation was determined by the thioflavin T assay as illustrated in Example 11.

[4] = target: T4, Aβ-VEGF binding (VEGF, biotinylated Aβ1-42) (Homo sapiens, UniProt P15692); experiment: Aβ-VEGF binding in presence of triamterene; details: 100 nM VEGF, 100 nM biotinylated Aβ1-42, 37° C., 24 hours
T4 sequence (P15692 27-191 isoform P15692-4 limits assumed): T1 sequence (P15692 27-191 isoform P15692-4 limits assumed)
Procedure: The level of the formation of the Aβ-VEGF binding was measured and compared with that of control without triamterene.

[5] = target: VEGF receptor, KDR-Fc (Homo sapiens, UniProt P35968); details: VEGF 12 nM immobilized; 0.3 nM KDR-Fc
VEGF receptor, KDR-Fc, sequence (P35968 with tags, fused parts or gaps limits assumed): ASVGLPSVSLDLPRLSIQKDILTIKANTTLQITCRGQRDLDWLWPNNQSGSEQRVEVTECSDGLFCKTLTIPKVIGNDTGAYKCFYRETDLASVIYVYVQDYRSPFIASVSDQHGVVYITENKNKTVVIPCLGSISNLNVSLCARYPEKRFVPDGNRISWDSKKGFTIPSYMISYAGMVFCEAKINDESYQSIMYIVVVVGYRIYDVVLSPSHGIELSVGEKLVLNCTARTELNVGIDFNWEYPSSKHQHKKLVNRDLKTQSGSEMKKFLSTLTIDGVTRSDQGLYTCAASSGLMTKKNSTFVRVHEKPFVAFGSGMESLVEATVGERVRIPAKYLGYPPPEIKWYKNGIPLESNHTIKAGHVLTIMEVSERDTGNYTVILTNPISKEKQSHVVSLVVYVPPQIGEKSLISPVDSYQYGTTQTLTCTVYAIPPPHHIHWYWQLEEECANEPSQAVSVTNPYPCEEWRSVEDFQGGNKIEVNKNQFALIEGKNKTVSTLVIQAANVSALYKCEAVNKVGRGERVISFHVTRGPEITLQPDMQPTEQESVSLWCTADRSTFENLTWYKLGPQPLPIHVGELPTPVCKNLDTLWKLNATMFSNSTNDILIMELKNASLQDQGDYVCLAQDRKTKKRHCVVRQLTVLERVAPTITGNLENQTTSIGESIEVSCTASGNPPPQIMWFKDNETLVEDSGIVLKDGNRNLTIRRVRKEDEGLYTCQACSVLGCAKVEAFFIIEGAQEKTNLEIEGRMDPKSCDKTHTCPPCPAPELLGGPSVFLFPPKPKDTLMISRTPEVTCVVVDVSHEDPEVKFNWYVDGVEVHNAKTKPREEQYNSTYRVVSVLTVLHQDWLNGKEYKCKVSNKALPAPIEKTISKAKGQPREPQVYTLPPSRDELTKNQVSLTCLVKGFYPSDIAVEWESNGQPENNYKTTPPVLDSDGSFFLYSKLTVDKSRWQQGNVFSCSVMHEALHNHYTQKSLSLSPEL
Procedure: After removing unbound KDR-Fc, the bound KDR-Fc was determined by binding of mouse anti-Fc antibody followed by anti-mouse antibody conjugated with horse radish peroxidase.

[6] = test system: endothelial cells; experiment: Effect of Aβ peptides on binding of VEGF with the receptors on endothelial cells; format: cell-based; details: 1 μM; data not shown
[7] = test system: endothelial cells; experiment: Effect of Aβ peptides on proliferation of endothelial cells induced by VEGF; format: cell-based; details: 1 μM; data not shown
[8] = test system: MDA-MB-231 tumor cells; experiment: Effect of Aβ peptides on binding of VEGF to tumor cells that express neuropilin-1; format: cell-based; details: data not shown
[9] = target: T5, immobilized VEGF165 (Homo sapiens, UniProt P15692); experiment: Determination of VEGF binding region in Aβ, competition by Aβ fragments; details: Aβ1-42 50 nM; 30 μM or 50 μM Aβ fragment
T5 sequence (P15692 27-191 isoform P15692-4): T1 sequence (P15692 27-191 isoform P15692-4 limits assumed)
Procedure: After removing unbound Aβ, the bound Aβ was determined by binding of rabbit anti-Aβ antibody followed by anti-rabbit antibody conjugated with horse radish peroxidase. […] The bound biotinylated Aβ was determined with streptavidin conjugated with horse radish peroxidase.

[10] = target: T2, Aβ; experiment: Determination of Aβ binding region in VEGF, immobilized GST-fusion proteins; details: GST-fusion proteins 200 nM immobilized; 200 nM Aβ
Procedure: The purified proteins were analyzed with 12% SDS-polyacrylmide gel electrophoresis. […] After blocking nonspecific binding sites with 3% BSA/PBS, 200 nM of Aβ was added to each well and allowed to bind to immobilized proteins. Unbound Aβ was removed and the bound Aβ was determined with rabbit anti-Aβ antibody followed by anti-rabbit antibody conjugated with horse radish peroxidase.

[11] = test system: PC12 cells; experiment: MTT assay, cytotoxicity of Aβ; format: cell-based; design: dose or concentration left out as unconfirmed; details: Aβ1-42 incubated with VEGF165 or GST-HBD at 37° C. for 24 hours; PC12 cells 24 hours
Procedure: The mixture was added to PC12 cells (2×10^4, cells/well, kindly provided by Dr. Pann-Ghill Suh), and then left for reaction at 37° C. for 24 hours. Then, 1/10 volume of 5 mg/ml MTT solution was added to the resulted mixture, and reacted for 2 hours. The obtained cells were lysed by 25% dimethylformamide/10% SDS. Thereafter, the absorbance of the lysate was measured at 570 nm, and then, compared with that of control of non-treated PC12 cells, to determine the reduction of MTT, and thereby determining the viability of the cells.

[12] = test system: PC12 cells; experiment: Ethidium fluorescence assay, cytotoxicity of Aβ; format: cell-based; details: 5 μM Aβ1-42 incubated with VEGF or GST-HBD at 37° C. for 24 hours; PC12 cells 24 hours
Procedure: The mixture was added to PC12 cells (2×10^4, cells/well, kindly provided by Dr. Pann-Ghill Suh), and then left for reaction at 37° C. for 24 hours. Then, equal volume of 4 μM ethidium homodimer-1 was added to the resulted mixture, and reacted for 30 minutes. Thereafter, the fluorescence of the mixture was measured at Ex=530 nm and Em=645 nm, and then, compared with that of control of non-treated PC12 cells, to determine the cytotoxicity of Aβ.

[13] = test system: PC12 cells; experiment: DCF fluorescence, generation of reactive oxygen species by Aβ; format: cell-based; details: PC12 cells 3 hours
Procedure: 5 μM VEGF165 or 5 μM GST-HBD and 5 μM Aβ1-42 were mixed and incubated at 37° C. for 24 hours. The mixture was added to PC12 cells (6×10^4, cells/well, kindly provided by Dr. Pann-Ghill Suh), and then left for reaction at 37° C. for 3 hours. Then, 100 μM of DCF solution was added to the resulted mixture, reacted for 30 minutes, and then washed with PBS (phosphate-buffered saline). The obtained cells were observed through a fluorescent microscope, and DCF fluorescence was measured, to calculate the level of generation of the reactive oxygen species.

[14] = target: T2, Aβ; experiment: Binding of growth factors to Aβ; details: among NGF, bFGF, PDGF, VEGF and midkine
[15] = target: T6, Aβ-VEGF binding (Homo sapiens, UniProt P15692); experiment: Search for an inhibitor of Aβ-VEGF binding
T6 construct: Aβ (Aβ) is the major component of senile plaques and is derived from the amyloid precursor protein by proteolytic cleavage
T6 sequence (P15692 27-191 isoform P15692-4 limits assumed): T1 sequence (P15692 27-191 isoform P15692-4 limits assumed)

[16] = target: T7, VEGF/Aβ interaction (GST-heparin-binding domain, biotinylated Aβ1-42) (Homo sapiens, UniProt P15692); experiment: Heparin inhibition of biotinylated Aβ1-42 binding to immobilized GST-heparin-binding domain; details: GST-heparin-binding domain 100 nM immobilized; biotinylated Aβ1-42 50 nM
T7 construct: made in house
T7 sequence (P15692 137-191 isoform P15692-4): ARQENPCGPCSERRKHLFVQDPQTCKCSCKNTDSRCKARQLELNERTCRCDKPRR
Procedure: After removing unbound biotinylated Aβ, the bound peptide was determined with steptavidin conjugated with horse radish peroxidase.

Molecule: O=C(O[C@@H]1Cc2c(O)cc(O)cc2O[C@@H]1c1cc(O)c(O)c(O)c1)c1cc(O)c(O)c(O)c1 [EGCG, epigallocatechin gallate, reference compound]
- inhibition of binding of Aβ to VEGF [1]: inhibition
- activity to inhibit the aggregation of Aβ by itself [2]: additional activity to inhibit the aggregation of Aβ by itself

Molecule: Nc1nc(N)c2nc(-c3ccccc3)c(N)nc2n1 [triamterene]
- affection on aggregation of Aβ (thioflavin T) ([3]; 50 μM Aβ, 37° C., triamterene 0, 4, 20 or 100 μM): no affection on aggregation of Aβ regardless of the concentration
- inhibition of the Aβ-VEGF binding [4]: concentration-dependently inhibits the binding between Aβ and VEGF
- affection on the VEGF-VEGF receptor binding [5]: no affection on the VEGF-VEGF receptor binding regardless of the concentration

Molecule: Aβ1-40: β-amyloid peptide residues 1-40 (BACHEM)
- effect on the binding of VEGF with the receptors on endothelial cells [6]: Neither Aβ1-40 nor Aβ1-42, even at a high concentration (1 μM), affected
- effect on the proliferation of endothelial cells induced by VEGF [7]: Neither Aβ1-40 nor Aβ1-42, even at a high concentration (1 μM), affected
- effect on the binding of VEGF to MDA-MB-231 tumor cells [8]: Neither did Aβ1-40 nor Aβ1-42 affect

Molecule: Aβ1-42: β-amyloid peptide 1-42, SEQ ID NO:4
- effect on the binding of VEGF with the receptors on endothelial cells [6]: Neither Aβ1-40 nor Aβ1-42, even at a high concentration (1 μM), affected
- effect on the proliferation of endothelial cells induced by VEGF [7]: Neither Aβ1-40 nor Aβ1-42, even at a high concentration (1 μM), affected
- effect on the binding of VEGF to MDA-MB-231 tumor cells [8]: Neither did Aβ1-40 nor Aβ1-42 affect

Molecule: Aβ25-35: partial fragment of Aβ, residues 25-35 of SEQ ID NO:4 (GSNRGAIIGLM; listed as Homo sapiens)
- competition with Aβ for binding to immobilized VEGF165 [9]: competes with Aβ for its binding to immobilized VEGF165

Molecule: GST-CHBD: C-terminal half (amino acid 29-55) of heparin-binding domain fused to GST (CKNTDSRCKARQLELNERTCRCDKPRR; cysteine pairing not given here; also: fused to GST)
- binding of Aβ to immobilized GST-fusion protein [10]: Aβ binds to C-terminal sub-domain of heparin-binding domain

Molecule: HBD: full heparin-binding domain of VEGF165 (SEQ ID NO:2) fused to GST (ARQENPCGPCSERRKHLFVQDPQTCKCSCKNTDSRCKARQLELNERTCRCDKPRR; cysteine pairing not given here; also: fused to GST)
- inhibition of the cytotoxicity of Aβ (MTT reduction) [11]: exhibits the activity to inhibit the cytotoxicity of Aβ
- inhibition of the cytotoxicity of Aβ (ethidium homodimer-1 fluorescence) [12]: inhibit the cytotoxicity of Aβ depending on the concentration
- inhibition of aggregation of Aβ (thioflavin T) ([3]; 50 μM Aβ1-42, 37° C., VEGF or GST-HBD at various concentrations): inhibit aggregation of Aβ depending on the concentration
- generation of the reactive oxygen species, treatment alone ([13]; 5 μM VEGF165 or 5 μM GST-HBD alone): no effect on the generation of the reactive oxygen species
- generation of the reactive oxygen species by Aβ, treatment together with Aβ ([13]; 5 μM VEGF165 or 5 μM GST-HBD with 5 μM Aβ1-42): inhibitory effect on the generation of the reactive oxygen species by Aβ

Molecule: NGF: nerve growth factor
- binding of growth factor to Aβ [14]: only VEGF and midkine bound to A

Molecule: PDGF
- binding of growth factor to Aβ [14]: only VEGF and midkine bound to A

Molecule: bFGF: basic fibroblast growth factor
- binding of growth factor to Aβ [14]: only VEGF and midkine bound to A

Molecule: fucoidan
- activity to inhibit the aggregation of Aβ by itself [2]: additional activity to inhibit the aggregation of Aβ by itself
- inhibitor of Aβ-VEGF binding (search) [15]: searched as an inhibitor of Aβ-VEGF binding

Molecule: heparin
- IC50, inhibition of binding of biotinylated Aβ1-42 to heparin-binding domain [16]: ~0.025 µg/mL

Molecule: tannic acid
- inhibition of binding of Aβ to VEGF [1]: inhibition

B1: midkine: heparin-binding, neurotrophic growth factor whose expression occurs mainly in fetus (protein)
chain: VAKKKDKVKKGGPGSECAEWAWGPCTPSSKDCGVGFREGTCGAQTQRIRCRVPCNWKKEFGADCKYKFENWGACDGGTGTKVRQGTLKKARYNAQCQETIRVTKPCTPKTKAKAKAKKGKGKD
- binding of growth factor to Aβ [14]: bound to A
